For this test, the target named is T1, fatty acyl CoA:cholesterol acyl transferase (ACAT) (Rattus norvegicus, UniProt O70536).
T1 construct: The supernatant, containing the microsomal fraction, served as the source of the cholesterol-esterifying enzyme; from tissue; host or cells: rat adrenals, homogenate supernatant (1,000 x g) containing the microsomal fraction
T1 sequence (O70536 1-545): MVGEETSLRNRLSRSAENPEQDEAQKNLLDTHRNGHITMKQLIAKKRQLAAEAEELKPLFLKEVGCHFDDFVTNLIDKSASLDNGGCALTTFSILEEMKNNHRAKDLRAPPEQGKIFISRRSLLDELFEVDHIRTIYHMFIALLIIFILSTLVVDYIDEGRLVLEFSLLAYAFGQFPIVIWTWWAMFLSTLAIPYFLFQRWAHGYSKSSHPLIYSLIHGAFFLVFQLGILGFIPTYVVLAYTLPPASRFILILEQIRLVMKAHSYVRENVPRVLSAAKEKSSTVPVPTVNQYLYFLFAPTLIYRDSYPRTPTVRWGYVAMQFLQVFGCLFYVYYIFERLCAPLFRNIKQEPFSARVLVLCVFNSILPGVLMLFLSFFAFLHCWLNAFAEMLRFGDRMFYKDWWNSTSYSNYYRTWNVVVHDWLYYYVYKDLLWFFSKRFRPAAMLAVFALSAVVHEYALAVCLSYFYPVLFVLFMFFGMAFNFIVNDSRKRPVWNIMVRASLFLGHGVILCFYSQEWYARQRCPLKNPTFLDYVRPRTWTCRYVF
Description: Inhibition of enzymatic esterification of cholesterol (ACAT) in rat adrenal supernatant containing the microsomal fraction. It is filed as biochemical. The note with it: final concentration of test compound 5.2 μg./ml., 14C-oleoyl CoA, 37° C., read-out: % INHIBITION (percent inhibition of the ACAT enzyme as compared to control values). As to the method: The compounds of the present invention were tested for their ability to inhibit the enzymatic esterification of cholesterol according to the following procedure:
Rat adrenals were homogenized in 0.2M monobasic potassium phosphate buffer, pH 7.4, and centrifuged at 1,000 times gravity for 15 minutes at 5° C. The supernatant, containing the microsomal fraction, served as the source of the cholesterol-esterifying enzyme, fatty acyl CoA:cholesterol acyl transferase (ACAT). A mixture comprising 50 parts of adrenal supernatant, 10 parts of albumin (BSA) (50 mg./ml.), 20 parts of oleoyl CoA (^14 C-0.4 μCi), 3 parts of test compound, and 500 parts of buffer was pre-incubated at 37° C. for 10 minutes. After treatment with 20 parts of oleoyl CoA (^14 C-0.4 μCi), the mixture was incubated at 37° C. for 10 minutes. A control mixture, omitting the test compound, was prepared and treated in the same manner. The lipids from the incubation mixture were extracted into an organic solvent and separated by thin-layer chromatography. The cholesterol ester fraction was counted in a scintillation counter. This procedure is a modification of that described by Hashimoto, et al., Life Scie., 12 (Part II), 1-12 (1973).
The results of this test on representative compounds of this invention appear in Table I. The final concentration of the test compound was 5.2 μg./ml., and effectiveness of the compound is expressed as percent inhibition of the ACAT enzyme as compared to control values.

The term inhibition denotes the percentage by which the read-out fell short of the control.

Regarding `CCOC(=O)c1ccc(NC(=O)CC2c3ccccc3Sc3ccccc32)cc1` [Ethyl 4-[(9-thioxanthenyl)acetamido]benzoate], the inhibition at 5.2 µg/mL is 9%.

`O=C(CC1c2ccccc2Sc2ccccc21)Nc1ccc(C(=O)O)cc1` [4-[Thioxanthene-9-acetamido]benzoic acid, 4-[(9-Thioxanthenyl)acetamido]benzoic acid]: the inhibition at 5.2 µg/mL stood at 37%.

Take `O=C(C=C1c2ccccc2CCc2ccccc21)Nc1ccc(C(=O)O)cc1` [p-(10,11-Dihydro-5H-dibenzo[a,d]cycloheptene-Δ^5,α -acetamido)benzoic acid]: the inhibition at 5.2 µg/mL is 51%.

On to `O=C(C=C1c2ccccc2C=Cc2ccccc21)Nc1ccc(C(=O)O)cc1` [4-(5H-Dibenzo[a,d]cycloheptene-Δ^5,α -acetamido) benzoic acid], for which the inhibition at 5.2 µg/mL was 47%.

With `CCOC(=O)c1ccc(NC(=O)C=C2c3ccccc3C=Cc3ccccc32)cc1` [Ethyl 4-(5H-dibenzo[a,d]cycloheptene-Δ^5,α -acetamido) benzoate], the inhibition at 5.2 µg/mL was 20%.

The values above are taken from US4489090A, “Dibenzocycloalkanamido and dibenzothioxanthenyl benzoic acids” (American Cyanamid Company, priority 1983, dated 1984).
